Measured values as given in US20250145633A1, “SUBSTITUTED FURANOPYRIMIDINE COMPOUNDS AS PDE1 INHIBITORS” (Dart NeuroScience, LLC, priority 2017, published 2025).

Biological target: human PDE1B enzyme (Homo sapiens (Human), UniProt Q01064)
Experiment: IMAP TR-FRET PDE1B enzymatic assay
Assay type: biochemical
Conditions: negative log of half-maximal molar inhibitory concentration, 200 nM FAM-cAMP, values given as bins; for IC50: read-out: PDE1b (pIC50) (converted)
Protocol: PDE1B inhibition was determined by an IMAP TR-FRET assay. The IMAP TR-FRET PDE assay was optimized for concentration of enzyme, Calmodulin, cAMP or cGMP substrate, DMSO tolerance, and incubation time.
Into each well of a solid white 1536 well plate (Corning) was dispensed 250 pg full-length recombinant NH-terminal GST tagged human PDE1B enzyme (BPS Bioscience Cat #60011, San Diego, CA) in 2.5 μL IMAP BSA reaction buffer (Molecular Devices, Sunnyvale, CA) containing 10 U/ml Calmodulin and 2.5 mM CaCl2) (Sigma Aldrich.) After a brief centrifugation, 30 nL of compound was added by transfer from 1 mM stock in DMSO using a Kalypsys 1536 Pintool. Plates were incubated for 5 minutes at room temperature before dispensing 1.5 μL of 533 nM 5-carboxy fluorescein (FAM)-labeled cAMP (Molecular Devices, Sunnyvale, CA) for a final concentration of 200 nM. After a brief centrifugation, the plates were incubated for 30 minutes at room temperature. The assay was terminated by adding 5 μL IMAP binding reagent/Tb complex (Molecular Devices, Sunnyvale, CA) to each well.
Plates were incubated for 1 hour at room temperature and were read on a Viewlux multimode plate reader (Perkin Elmer). The instrument was set to excite using the DUG11 filter and measure using 490/10 nm and 520/10 nm filters. Ratios of acceptor and donor were then calculated.
For IC50 calculations, the values of % efficacy versus a series of compound concentrations were then plotted using non-linear regression analysis of sigmoidal dose-response curves generated with the equation Y=[B+(T−B)]/[1+10((Log EC50−X)×Hill Slope)], where Y=percent activity, B=minimum percent efficacy, T=maximum percent efficacy, X=logarithm of compound and Hill Slope=slope factor or Hill coefficient. The IC50 value was determined by the concentration causing a half-maximal percent efficacy.

| Compound | IC50 | PDE1b (pIC50) |
| --- | --- | --- |
| Cc1oc2ncnc(NC3(C)CC3)c2c1C(=O)NCCc1ccc(F)cc1 [Example 50, N-[2-(4-Fluorophenyl)ethyl]-6-methyl-4-[(1-methylcyclopropyl)amino]furo[2,3-d]pyrimidine-5-carboxamide] | 10 to 100 nM |  |
| Cc1oc2ncnc(NC3(C)CC3)c2c1C(=O)NC(C)c1ccc(F)cn1 (stereo not shown) [Example 51, N-[1-(5-Fluoropyridin-2-yl)ethyl]-6-methyl-4-[(1-methylcyclopropyl)amino]furo[2,3-d]pyrimidine-5-carboxamide] |  | >8 |
| Cc1oc2ncnc(NC3(C)CC3)c2c1C(=O)NCc1ccc(C#N)cc1 [Example 52, N-[(4-Cyanophenyl)methyl]-6-methyl-4-[(1-methylcyclopropyl)amino]furo[2,3-d]pyrimidine-5-carboxamide] | 10 to 100 nM |  |
| COc1cccc(CNC(=O)c2c(C)oc3ncnc(NC4(C)CC4)c23)n1 [Example 53, N-[(6-Methoxypyridin-2-yl)methyl]-6-methyl-4-[(1-methylcyclopropyl)amino]furo[2,3-d]pyrimidine-5-carboxamide] | 10 to 100 nM |  |
| COc1ccc(CNC(=O)c2c(C)oc3ncnc(NC4(C)CC4)c23)cn1 [Example 54, N-[(6-Methoxypyridin-3-yl)methyl]-6-methyl-4-[(1-methylcyclopropyl)amino]furo[2,3-d]pyrimidine-5-carboxamide] |  | >8 |
| COc1ccc(CNC(=O)c2c(C)oc3ncnc(NC4(C)CC4)c23)nc1 [Example 55, N-[(5-Methoxypyridin-2-yl)methyl]-6-methyl-4-[(1-methylcyclopropyl)amino]furo[2,3-d]pyrimidine-5-carboxamide] |  | >8 |
| Cc1oc2ncnc(NC3(C)CC3)c2c1C(=O)N1CC(c2ccc(F)cc2)C1 [Example 56, 5-[3-(4-Fluorophenyl)azetidine-1-carbonyl]-6-methyl-N-(1-methylcyclopropyl)furo[2,3-d]pyrimidin-4-amine] |  | >8 |
| Cc1oc2ncnc(NC3(C)CC3)c2c1C(=O)N1CCC(c2ccc(F)cc2)C1 (stereo not shown) [Example 57, 5-[3-(4-Fluorophenyl)pyrrolidine-1-carbonyl]-6-methyl-N-(1-methylcyclopropyl)furo[2,3-d]pyrimidin-4-amine] |  | >8 |
| Cc1oc2ncnc(NC3(C)CC3)c2c1C(=O)N1CCc2cc(C#N)ccc2C1 [Example 58, 2-{6-Methyl-4-[(1-methylcyclopropyl)amino]furo[2,3-d]pyrimidine-5-carbonyl}-1,2,3,4-tetrahydroisoquinoline-6-carbonitrile] | 10 to 100 nM |  |
| Cc1oc2ncnc(NC3(C)CC3)c2c1C(=O)NCc1ccc(OC(F)F)cn1 [Example 59, N-{[5-(Difluoromethoxy)pyridin-2-yl]methyl}-6-methyl-4-[(1-methylcyclopropyl)amino]furo[2,3-d]pyrimidine-5-carboxamide] |  | >8 |
| Cc1oc2ncnc(NC3(C)CC3)c2c1C(=O)N1CCC(c2ccc(F)cc2)CC1 [Example 60, 5-[4-(4-Fluorophenyl)piperidine-1-carbonyl]-6-methyl-N-(1-methylcyclopropyl)furo[2,3-d]pyrimidin-4-amine] |  | >8 |
| Cc1oc2ncnc(NC3(C)CC3)c2c1C(=O)N1CCN(c2ccc(F)cc2)CC1 [Example 61, 5-[4-(4-Fluorophenyl)piperazine-1-carbonyl]-6-methyl-N-(1-methylcyclopropyl)furo[2,3-d]pyrimidin-4-amine] |  | >8 |
| Cc1oc2ncnc(NC3(C)CC3)c2c1C(=O)N1CCC(F)(c2ccccn2)CC1 [Example 62, 5-[4-Fluoro-4-(pyridin-2-yl)piperidine-1-carbonyl]-6-methyl-N-(1-methylcyclopropyl)furo[2,3-d]pyrimidin-4-amine] |  | >8 |
| Cc1oc2ncnc(NC3(C)CC3)c2c1C(=O)N1CCC(O)(c2ccc(F)cc2)CC1 [Example 63, 4-(4-Fluorophenyl)-1-{6-methyl-4-[(1-methylcyclopropyl)amino]furo[2,3-d]pyrimidine-5-carbonyl}piperidin-4-ol] |  | >8 |
| Cc1oc2ncnc(NC3(C)CC3)c2c1C(=O)N1CCN(c2ccc(F)c(F)c2)C(=O)C1 [Example 64, 1-(3,4-Difluorophenyl)-4-{6-methyl-4-[(1-methylcyclopropyl)amino]furo[2,3-d]pyrimidine-5-carbonyl}piperazin-2-one] | 10 to 100 nM |  |
| Cc1oc2ncnc(NC3(C)CC3)c2c1C(=O)N1C[C@@H]2[C@H](C1)[C@H]2c1ccc(C(F)(F)F)cn1 [Example 65, 6-Methyl-N-(1-methylcyclopropyl)-5-[(1R,5S,6S)-6-[5-(trifluoromethyl)pyridin-2-yl]-3-azabicyclo[3.1.0]hexane-3-carbonyl]furo[2,3-d]pyrimidin-4-amine] | 100 to 1000 nM |  |

| Compound | IC50 | PDE1b (pIC50) |
| --- | --- | --- |
| Cc1oc2ncnc(NC3(C)CC3)c2c1C(=O)NCc1cccc(C#N)c1 [Example 66, N-[(3-Cyanophenyl)methyl]-6-methyl-4-[(1-methylcyclopropyl)amino]furo[2,3-d]pyrimidine-5-carboxamide] |  | >8 |
| Cc1oc2ncnc(NC3(C)CC3)c2c1C(=O)N1CCC(O)(c2ccc(F)cc2)C1 (stereo not shown) [Example 67, 3-(4-Fluorophenyl)-1-{6-methyl-4-[(1-methylcyclopropyl)amino]furo[2,3-d]pyrimidine-5-carbonyl}pyrrolidin-3-ol] |  | >8 |
| Cc1oc2ncnc(NC3(C)CC3)c2c1C(=O)NC(C)c1ccc(F)cc1 (stereo not shown) [Example 68, N-[1-(4-Fluorophenyl)ethyl]-6-methyl-4-[(1-methylcyclopropyl)amino]furo[2,3-d]pyrimidine-5-carboxamide] | 10 to 100 nM |  |
| Cc1oc2ncnc(NC3(C)CC3)c2c1C(=O)NC1(c2ccc(F)cc2)CC1 [Example 69, N-[1-(4-Fluorophenyl)cyclopropyl]-6-methyl-4-[(1-methylcyclopropyl)amino]furo[2,3-d]pyrimidine-5-carboxamide] |  | >8 |
| Cc1oc2ncnc(NC3(C)CC3)c2c1C(=O)N1CCC(c2ccccn2)C1 (stereo not shown) [Example 70, 6-Methyl-N-(1-methylcyclopropyl)-5-[3-(pyridin-2-yl)pyrrolidine-1-carbonyl]furo[2,3-d]pyrimidin-4-amine] | 10 to 100 nM |  |
| Cc1oc2ncnc(NC3(C)CC3)c2c1C(=O)N1CCC(c2cccnc2)C1 (stereo not shown) [Example 71, 6-Methyl-N-(1-methylcyclopropyl)-5-[3-(pyridin-3-yl)pyrrolidine-1-carbonyl]furo[2,3-d]pyrimidin-4-amine] | 10 to 100 nM |  |
| Cc1oc2ncnc(NC3(C)CC3)c2c1C(=O)N1CCC(c2ccncc2)C1 (stereo not shown) [Example 72, 6-Methyl-N-(1-methylcyclopropyl)-5-[3-(pyridin-4-yl)pyrrolidine-1-carbonyl]furo[2,3-d]pyrimidin-4-amine] | 10 to 100 nM |  |
| Cc1oc2ncnc(NC3(C)CC3)c2c1C(=O)NCc1nccs1 [Example 73, 6-Methyl-4-[(1-methylcyclopropyl)amino]-N-(1,3-thiazol-2-ylmethyl)furo[2,3-d]pyrimidine-5-carboxamide] | 10 to 100 nM |  |
| Cc1oc2ncnc(NC3(C)CC3)c2c1C(=O)NCc1cncs1 [Example 74, 6-Methyl-4-[(1-methylcyclopropyl)amino]-N-(1,3-thiazol-5-ylmethyl)furo[2,3-d]pyrimidine-5-carboxamide] | 10 to 100 nM |  |
| Cc1oc2ncnc(NC3(C)CC3)c2c1C(=O)NCc1cscn1 [Example 75, 6-Methyl-4-[(1-methylcyclopropyl)amino]-N-(1,3-thiazol-4-ylmethyl)furo[2,3-d]pyrimidine-5-carboxamide] | 10 to 100 nM |  |
| Cc1oc2ncnc(NC3(C)CC3)c2c1C(=O)NCc1ccccn1 [Example 76, 6-Methyl-4-[(1-methylcyclopropyl)amino]-N-(pyridin-2-ylmethyl)furo[2,3-d]pyrimidine-5-carboxamide] | 10 to 100 nM |  |
| Cc1oc2ncnc(NC3(C)CC3)c2c1C(=O)NC(C)c1ccccn1 (stereo not shown) [Example 77, 6-Methyl-4-[(1-methylcyclopropyl)amino]-N-[1-(pyridin-2-yl)ethyl]furo[2,3-d]pyrimidine-5-carboxamide] | 10 to 100 nM |  |
| Cc1oc2ncnc(NC3(C)CC3)c2c1C(=O)NC(C)(C)c1ccccn1 [Example 78, 6-Methyl-4-[(1-methylcyclopropyl)amino]-N-[2-(pyridin-2-yl)propan-2-yl]furo[2,3-d]pyrimidine-5-carboxamide] | 10 to 100 nM |  |
| Cc1oc2ncnc(NC3(C)CC3)c2c1C(=O)NC1(c2ccccn2)CC1 [Example 79, 6-Methyl-4-[(1-methylcyclopropyl)amino]-N-[1-(pyridin-2-yl)cyclopropyl]furo[2,3-d]pyrimidine-5-carboxamide] | 10 to 100 nM |  |
| CNC(=O)c1c(C)oc2ncnc(NC3(C)CC3)c12 [Example 80, N,6-Dimethyl-4-[(1-methylcyclopropyl)amino]furo[2,3-d]pyrimidine-5-carboxamide] | 100 to 1000 nM |  |
